Earlier results in EP0076676B1, “Process for using endorphins as antitumour agents” (TNI PHARMACEUTICALS, INC., priority 1981, dated 1986).

Tested on: phenylalanyl-t RNA synthetase
Settings: observed by Laidow et al, J.B.C. 255 (1980)

## beta-endorphin
  inhibition of phenylalanyl-t RNA synthetase: inhibit
